# Results published in patent publication US10570184B2, “GLP-1/glucagon receptor co-agonists for medical use” (Novo Nordisk A/S, priority 2014, dated 2020).
# Starred links: 1 amine or outer side, 2 acyl side, 3 side chain; linkers in the order of their positions; H or OH if unused. Non-standard residues stand in square brackets, D forms with d. Residues, ends and D or L forms follow the SMILES beside them. Groups on a side chain read outwards from the residue. *: point of attachment. C18 diacid = O=C(O)CCCCCCCCCCCCCCCCC(=O)*; γGlu = O=C(O)[C@H](CCC(=O)[*:2])N[*:1]; AEEA = NCCOCCOCC(=O)O; Aib = CC(C)(N)C(=O)O
# Biological target: T1, human GLP-1 receptor (Homo sapiens, UniProt P43220)
# T1 construct: expressed in transfected cells; host or cells: membranes of BHK cells (parent BHKTS13), clone FCW467-12A
# T1 sequence (P43220 24-463): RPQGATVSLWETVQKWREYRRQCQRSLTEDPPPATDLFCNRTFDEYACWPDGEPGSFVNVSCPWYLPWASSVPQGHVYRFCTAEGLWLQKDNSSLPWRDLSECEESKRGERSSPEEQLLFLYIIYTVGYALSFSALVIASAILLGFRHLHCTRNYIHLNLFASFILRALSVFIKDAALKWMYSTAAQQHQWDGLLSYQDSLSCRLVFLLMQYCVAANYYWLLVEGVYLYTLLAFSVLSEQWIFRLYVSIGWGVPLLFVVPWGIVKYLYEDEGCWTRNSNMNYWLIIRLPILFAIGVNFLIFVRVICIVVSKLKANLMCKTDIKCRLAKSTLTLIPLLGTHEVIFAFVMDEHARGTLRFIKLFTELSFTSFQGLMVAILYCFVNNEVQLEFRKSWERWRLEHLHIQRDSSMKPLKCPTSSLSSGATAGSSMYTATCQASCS
# Experiment: Assay (I)(a) GLP-1 receptor activation, CRE luciferase reporter gene assay in BHK cells
# Format: cell-based
# Settings: without presence of serum albumin; read-out: GLP-1R EC50 (pM) [Assay (I)(a)]
# Method in brief: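 Stable BHK clone expressing human GLP-1 receptor with CRE-driven firefly luciferase, 5×10EE3 cells/well in medium with 2% ovalbumin and 0.2% Pluronic F-68. Compounds at 1×10EE-13 to 1×10EE-6 M final, 3 h at 37° C.; luminescence read, EC50 (pM) from four-parameter fit.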
row,EC50 [pM],Structure (SMILES)
1,3,"CC[C@H](C)[C@H](NC(=O)[C@H](CC(C)C)NC(=O)[C@H](Cc1c[nH]c2ccccc12)NC(=O)[C@H](CCC(N)=O)NC(=O)[C@@H](NC(=O)[C@H](Cc1ccccc1)NC(=O)[C@H](CC(=O)O)NC(=O)[C@H](CCCNC(=N)N)NC(=O)[C@H](C)NC(=O)[C@H](CCCNC(=N)N)NC(=O)[C@H](CCCNC(=N)N)NC(=O)[C@H](C)NC(=O)[C@H](CC(=O)O)NC(=O)[C@H](CC(C)C)NC(=O)[C@H](Cc1ccc(O)cc1)NC(=O)[C@H](CCCCN)NC(=O)[C@H](CO)NC(=O)[C@H](CC(C)C)NC(=O)[C@H](CC(=O)O)NC(=O)[C@H](CO)NC(=O)[C@@H](NC(=O)[C@H](Cc1ccccc1)NC(=O)[C@@H](NC(=O)CNC(=O)[C@H](CCC(N)=O)NC(=O)C(C)(C)NC(=O)[C@@H](N)Cc1c[nH]cn1)[C@@H](C)O)[C@@H](C)O)C(C)C)C(=O)N[C@@H](CO)C(=O)N[C@@H](CCCCNC(=O)CC[C@H](NC(=O)CC[C@H](NC(=O)COCCOCCNC(=O)COCCOCCNC(=O)CC[C@H](NC(=O)CCCCCCCCCCCCCCCCC(=O)O)C(=O)O)C(=O)O)C(=O)O)C(N)=O [Chem. 27, N^ε29-[(4S)-4-carboxy-4-[[(4S)-4-carboxy-4-[[2-[2-[2-[[2-[2-[2-[[(4S)-4-carboxy-4-(17-carboxyheptadecanoylamino)butanoyl]amino]ethoxy]ethoxy]acetyl]amino]ethoxy]ethoxy]acetyl]amino]butanoyl]amino]butanoyl]-[Aib2,Leu10,Ala16,Arg20,Ile27,Ser28,Lys29]-Glucagon amide] (H-H[Aib]QGTFTSDLSKYLDARRARDFVQWLISK([γGlu-γGlu-AEEA-AEEA-γGlu-C18 diacid])-NH2; N-terminus assumed)"
2,3,"CC[C@H](C)[C@H](NC(=O)[C@H](CC(C)C)NC(=O)[C@H](Cc1c[nH]c2ccccc12)NC(=O)[C@H](C)NC(=O)[C@@H](NC(=O)[C@H](Cc1ccccc1)NC(=O)[C@H](CC(=O)O)NC(=O)[C@H](CCCNC(=N)N)NC(=O)[C@H](C)NC(=O)[C@H](CCCNC(=N)N)NC(=O)[C@H](CCCNC(=N)N)NC(=O)[C@H](CC(C)C)NC(=O)[C@H](CC(=O)O)NC(=O)[C@H](CC(C)C)NC(=O)[C@H](Cc1ccc(O)cc1)NC(=O)[C@H](CCCCN)NC(=O)[C@H](CO)NC(=O)[C@H](CC(C)C)NC(=O)[C@H](CC(=O)O)NC(=O)[C@H](CO)NC(=O)[C@@H](NC(=O)[C@H](Cc1ccccc1)NC(=O)[C@@H](NC(=O)CNC(=O)[C@H](CCC(N)=O)NC(=O)C(C)(C)NC(=O)[C@@H](N)Cc1c[nH]cn1)[C@@H](C)O)[C@@H](C)O)C(C)C)C(=O)N[C@@H](CC(N)=O)C(=O)N[C@@H](CCCCNC(=O)CC[C@H](NC(=O)CC[C@H](NC(=O)COCCOCCNC(=O)COCCOCCNC(=O)CC[C@H](NC(=O)CCCCCCCCCCCCCCCCC(=O)O)C(=O)O)C(=O)O)C(=O)O)C(N)=O [Chem. 24, N^ε29-[(4S)-4-carboxy-4-[[(4S)-4-carboxy-4-[[2-[2-[2-[[2-[2-[2-[[(4S)-4-carboxy-4-(17-carboxyheptadecanoylamino)butanoyl]amino]ethoxy]ethoxy]acetyl]amino]ethoxy]ethoxy]acetyl]amino]butanoyl]amino]butanoyl]-[Aib2,Leu10,Leu16,Arg20,Ala24,Ile27,Lys29]-Glucagon amide] (H-H[Aib]QGTFTSDLSKYLDLRRARDFVAWLINK([γGlu-γGlu-AEEA-AEEA-γGlu-C18 diacid])-NH2; N-terminus assumed)"
